Assay results reported in patent US20250129070A1, “BIFUNCTIONAL ANDROGEN RECEPTOR COMPOUNDS” (priority 2023, published 2025).

Key:
AR / CBP ternary complex = test: Ternary complex formation assay (sandwich ELISA, AR capture / CBP detection) in VCaP cell lysates; assay type: cell-based; settings: 1.5 hours treatment, sandwich ELISA (AR capture, CBP or p300 detection)
In short: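 VCaP cells (50K/well, 5% charcoal-stripped FBS, ≥3 days) treated with bifunctional compound for 1.5 h, then lysed 30 min at 4 °C. AR captured on anti-AR (AR 441) plates; bound CBP or p300 detected by rabbit mAb plus HRP secondary. QuantaRed chemifluorescence read at ex 570/em 585, immediately and at 5 and 15 min.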

VCaP cells = test: VCaP growth inhibition assay; assay type: cell-based; settings: 30 pM R1881, 9 days, CTG
In short: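 VCaP cells in phenol red-free DMEM/5% CSS, pre-incubated 72 h, then stimulated with R1881 (final 30 pM) and treated with 1:5 serial dilutions (final 100 nM to 10 fM) for 9 days at 37 °C. Viability by CellTiter-Glo luminescence; IC50 from 4-parameter logistic fit of RLU vs concentration.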

Row | Structure (SMILES) | EC50 (AR / CBP ternary complex) [nM] | IC50 (VCaP cells) [nM]
1 | COc1cc(OC2C(C)(C)C(NC(=O)c3ccc(N4CCN(C5CCN(c6ccc(-c7cc8c(cn7)N(c7nn(C9CCOCC9)c9c7CN(C(C)=O)CC9)CCC8)cn6)CC5)CC4)cc3)C2(C)C)ccc1C#N (stereo not drawn) [Compound 323, 4-[4-[1-[5-[l-(5-acetyl-1-tetrahydropyran-4-yl-6,7-dihydro-4H-pyrazolo[4,3-c]pyridin-3-yl)-3,4-dihydro-2H-1,7-naphthyridin-6-yl]-2-pyridyl]-4-piperidyl]piperazin-1-yl]-N-[3-(4-cyano-3-methoxy-phenoxy)-2,2,4,4-tetramethyl-cyclobutyl]benzamide] | < 1 | ≤ 0.1
2 | CC(=O)N1CCc2c(c(-c3cccc4cc(-c5ccc(C(=O)NCCC6CCN(c7ncc(C(=O)NC8C(C)(C)C(Oc9ccc(C#N)c(Cl)c9)C8(C)C)cn7)CC6)nc5)ncc34)nn2C2CCOCC2)C1 (stereo not drawn) [Compound 179, 2-[4-[2-[[5-[8-(5-acetyl-1-tetrahydropyran-4-yl-6,7-dihydro-4H-pyrazolo[4,3-c]pyridin-3-yl)-3-isoquinolyl]pyridine-2-carbonyl]amino]ethyl]-1-piperidyl]-N-[3-(3-chloro-4-cyano-phenoxy)-2,2,4,4-tetramethyl-cyclobutyl]pyrimidine-5-carboxamide] | < 1 | 0.1 to 1
3 | CC(=O)N1CCc2c(c(-c3cccc4cc(-c5cnn(CC6CCN(c7ncc(C(=O)NC8C(C)(C)C(Oc9ccc(C#N)c(Cl)c9)C8(C)C)cn7)CC6)c5)ncc34)nn2C)C1 (stereo not drawn) [Compound 215, 2-[4-[[4-[8-(5-acetyl-1-methyl-6,7-dihydro-4H-pyrazolo[4,3-c]pyridin-3-yl)-3-isoquinolyl]pyrazol-1-yl]methyl]-1-piperidyl]-N-[3-(3-chloro-4-cyano-phenoxy)-2,2,4,4-tetramethyl-cyclobutyl]pyrimidine-5-carboxamide] | < 1 | 0.1 to 1
4 | COc1cc(OC2C(C)(C)C(NC(=O)c3ccc(OC4CCC5(CC4)CC(N4CCC(n6nc(N7CCCc8cc(-c9cnn(C)c9)c(C(F)F)cc87)c7c6CCN(C(C)=O)C7)CC4)C5)cc3)C2(C)C)ccc1C#N (stereo not drawn) [Compound 396, 4-[2-[4-[5-acetyl-3-[7-(difluoromethyl)-6-(1-methylpyrazol-4-yl)-3,4-dihydro-2H-quinolin-1-yl]-6,7-dihydro-4H-pyrazolo[4,3-c]pyridin-1-yl]-1-piperidyl]spiro[3.5]nonan-7-yl]oxy-N-[3-(4-cyano-3-methoxy-phenoxy)-2,2,4,4-tetramethyl-cyclobutyl]benzamide] | < 1 | 0.1 to 1
5 | CC(=O)N1CCc2c(c(-c3cccc4cc(-c5ccc(C(=O)NC6CCN(c7ncc(C(=O)NC8C(C)(C)C(Oc9ccc(C#N)c(Cl)c9)C8(C)C)cn7)CC6)nc5)ncc34)nn2C2CCOCC2)C1 (stereo not drawn) [Compound 180, 2-[4-[[5-[8-(5-acetyl-1-tetrahydropyran-4-yl-6,7-dihydro-4H-pyrazolo[4,3-c]pyridin-3-yl)-3-isoquinolyl]pyridine-2-carbonyl]amino]-1-piperidyl]-N-[3-(3-chloro-4-cyano-phenoxy)-2,2,4,4-tetramethylcyclobutyl]pyrimidine-5-carboxamide] | < 1 | ≤ 0.1
6 | CC(=O)N1CCc2c(c(N3CCCc4cc(-c5cnn(C)c5)c(C(F)F)cc43)nn2C2CCN([C@H]3CCCN(c4ncc(C(=O)NC5C(C)(C)C(Oc6ccc(C#N)c(Cl)c6)C5(C)C)cn4)C3)CC2)C1 (stereo partly drawn) [Compound 397, 2-[(3S)-3-[4-[5-acetyl-3-[7-(difluoromethyl)-6-(1-methylpyrazol-4-yl)-3,4-dihydro-2H-quinolin-1-yl]-6,7-dihydro-4H-pyrazolo[4,3-c]pyridin-1-yl]-1-piperidyl]-1-piperidyl]-N-[3-(3-chloro-4-cyano-phenoxy)-2,2,4,4-tetramethyl-cyclobutyl]pyrimidine-5-carboxamide] | 1 to 10 | > 100
7 | CC(=O)N1CCc2c(c(N3CCCc4cc(-c5cnn(C)c5)c(C)cc43)nn2C2CCN(CC3CCN(c4ncc(C(=O)NC5C(C)(C)C(Oc6ccc(C#N)c(Cl)c6)C5(C)C)cn4)CC3(C)C)CC2)C1 (stereo not drawn) [Compound 446, 2-[4-[[4-[5-acetyl-3-[7-methyl-6-(1-methylpyrazol-4-yl)-3,4-dihydro-2H-quinolin-1-yl]-6,7-dihydro-4H-pyrazolo[4,3-c]pyridin-1-yl]-1-piperidyl]methyl]-3,3-dimethyl-1-piperidyl]-N-[3-(3-chloro-4-cyano-phenoxy)-2,2,4,4-tetramethyl-cyclobutyl]pyrimidine-5-carboxamide] | < 1 | 0.1 to 1
8 | COc1cc(OC2C(C)(C)C(NC(=O)c3ccc(N4CCC(C5CCN(c6ccc(-c7cc8cccc(-c9nn(C%10CCOCC%10)c%10c9CN(C(C)=O)CC%10)c8cn7)cn6)CC5)CC4)cc3)C2(C)C)ccc1C#N (stereo not drawn) [Compound 267, 4-[4-[1-[5-[8-(5-acetyl-1-tetrahydropyran-4-yl-6,7-dihydro-4H-pyrazolo[4,3-c]pyridin-3-yl)-3-isoquinolyl]-2-pyridyl]-4-piperidyl]-1-piperidyl]-N-[3-(4-cyano-3-methoxy-phenoxy)-2,2,4,4-tetramethyl-cyclobutyl]benzamide] | 1 to 10 | 1 to 100
9 | COc1cc(OC2C(C)(C)C(NC(=O)c3ccc(N4CCC(CN5CCC(n6nc(-c7cccc8cc(-c9cnn(C)c9)ncc78)c7c6CCN(C(C)=O)C7)CC5)CC4)cc3)C2(C)C)ccc1C#N (stereo not drawn) [Compound 253, 4-[4-[[4-[5-acetyl-3-[3-(1-methylpyrazol-4-yl)-8-isoquinolyl]-6,7-dihydro-4H-pyrazolo[4,3-c]pyridin-1-yl]-1-piperidyl]methyl]-1-piperidyl]-N-[3-(4-cyano-3-methoxy-phenoxy)-2,2,4,4-tetramethyl-cyclobutyl]benzamide] | < 1 | ≤ 0.1
10 | COc1cc(OCC(C)(C)[C@H](NC(=O)c2ccc(N3CCN(CC4CCC(n5nc(N6CCCc7cc(-c8cnn(C)c8)c(C(F)F)cc76)c6c5CCN(C(C)=O)C6)CC4)CC3)cc2)C(C)C)ccc1C#N (stereo partly drawn) [Compound 317, 4-[4-[[4-[5-acetyl-3-[7-(difluoromethyl)-6-(1-methylpyrazol-4-yl)-3,4-dihydro-2H-quinolin-1-yl]-6,7-dihydro-4H-pyrazolo[4,3-c]pyridin-1-yl]cyclohexyl]methyl]piperazin-1-yl]-N-[(1R)-3-(4-cyano-3-methoxy-phenoxy)-1-isopropyl-2,2-dimethyl-propyl]benzamide] | < 1 | ≤ 0.1
11 | COc1cc(OC2C(C)(C)C(NC(=O)c3ccc(N4CC5(CCC(N6CCC(n7nc(N8CCCc9cc(C#N)c(C)cc98)c8c7CCN(C(C)=O)C8)CC6)CC5)C4)cc3)C2(C)C)ccc1C#N (stereo not drawn) [Compound 455, 4-[7-[4-[5-acetyl-3-(6-cyano-7-methyl-3,4-dihydro-2H-quinolin-1-yl)-6,7-dihydro-4H-pyrazolo[4,3-c]pyridin-1-yl]-1-piperidyl]-2-azaspiro[3.5]nonan-2-yl]-N-[3-(4-cyano-3-methoxy-phenoxy)-2,2,4,4-tetramethyl-cyclobutyl]benzamide] | < 1 | 0.1 to 1
12 | CC(=O)N1CCc2c(c(N3CCCc4cnccc43)nn2C2CCN(C(=O)C3CCN(c4ncc(C(=O)NC5C(C)(C)C(Oc6ccc(C#N)c(Cl)c6)C5(C)C)cn4)CC3)CC2)C1 (stereo not drawn) [Compound 128, 2-[4-[4-[5-acetyl-3-(3,4-dihydro-2H-1,6-naphthyridin-1-yl)-6,7-dihydro-4H-pyrazolo[4,3-c]pyridin-1-yl]piperidine-1-carbonyl]-1-piperidyl]-N-[3-(3-chloro-4-cyano-phenoxy)-2,2,4,4-tetramethyl-cyclobutyl]pyrimidine-5-carboxamide] | > 100 | > 100
